We go through two molecules from PMC10879502, “Linking ATP and allosteric sites to achieve superadditive binding with bivalent EGFR kinase inhibitors” (Communications Chemistry, 2024).

“And” between values parts separate entries of the source, which are not always exact repeats. Identical values can stand only once. Like-named read-outs stand apart in the source and are kept apart here.

Test [1] has as its target T1, EGFR L858R/T790M/C797S (LRTMCS) kinase domain (Homo sapiens, UniProt P00533, C797S/L858R/T790M).
T1 construct: The EGFR kinase domain (residues 696–1022) was cloned into pTriEx; 6xHis (N, cleaved yes); GST (N, cleaved yes); made in house; host or cells: SF9 insect cells, baculovirus
Briefly: HTRF KinEASE-TK kinase activity assay. It counts as biochemical.

The next test has as its system Ba/F3 cells, L858R EGFR. Briefly: Ba/F3 resazurin antiproliferative assay. The format is cell-based. The settings on record: Mus musculus, BaF3, 72 h, Ba/F3, 72 h; read-out: EGFR EC50, LR. How it is done: (§1) H1975 and HCC827 cells were obtained from the lab of Dr. Pasi Jänne (Dana-Farber Cancer Institute, 2022) cultured at 37 °C in RPMI 1640 media (Corning, 1004-CV) supplemented with 10% fetal bovine serum (Tissue Culture Biologicals, 35-010-CV) and 1% penicillin and streptomycin (P/S, Corning, 30-002-CI) and seeded overnight in a 96-well plate at a density of 60000 cells/mL. Cells were dosed with inhibitors to a final DMSO 0.5% in triplicate for 37 °C for 72 h. Cellular inhibition of growth was assessed by MTT viability assay according to the manufactures protocol (OZ Biosciences). Parental Ba/F3 cells was a generous gift from the laboratory of Dr. David Weinstock (in 2014), Dr. Pasi Jänne (2020) both of the Dana-Farber Cancer Institute and was used to generate the wildtype EGFR, L858R, and L858R/T790M EGFR mutant Ba/F3 cells[52],[67]. Ba/F3 cells were all cultured in RPMI1640 media with 10% fetal bovine serum and 1% penicillin and streptomycin. The Ba/F3 cell lines were tested negative for Mycoplasma using Mycoplasma Plus PCR Primer Set (Agilent) and were passaged and/or used for no longer than 4 weeks for all experiments. Assay reagents were purchased from MilliporeSigma (Cat# R7017-5G). Ba/F3 cells were plated and treated with increasing concentrations of inhibitors in triplicate for 72 h. Compounds were dispensed using the Tecan D300e Digital Dispenser. […] All experiments were repeated at least 3 times and values were reported as an average with standard deviation.
On the technique in general: Resazurin is reduced to fluorescent resorufin, in cell work by metabolically active cells.

Test [2] deals with Ba/F3 cells, L858R/T790M EGFR. Briefly: Ba/F3 resazurin antiproliferative assay. The note with it: Mus musculus, BaF3; Ba/F3, 72 h; read-out: EGFR EC50, LR/TM. It counts as cell-based. How it is done:
as §1

Test [3] relates to Ba/F3 cells, LR/TM/CS EGFR. Briefly: Ba/F3 resazurin antiproliferative assay. It counts as cell-based. The settings on record: Mus musculus, BaF3; Ba/F3, 72 h. How it is done: as §1
Test [4] has as its system Ba/F3 cells, wildtype EGFR. Briefly: Ba/F3 resazurin antiproliferative assay. It counts as cell-based. The note with it: Mus musculus, BaF3; Ba/F3, 72 h; read-out: EGFR EC50, wt. Here is the method: as §1
For test [5], the system named is EGFR phosphorylation (pY1068) in H1975 cells. As to the kind of experiment: Western blot. The format is cell-based, human. Here is the method: H1975, H3255, H3255GR and HCC827 lung adenocarcinoma cells (obtained from Dr. Pasi Jänne in Dana-Farber Cancer Institute, 2022) were cultured in RPMI 1640 media (Corning, 1004-CV) supplemented with 10% FBS (Tissue Culture Biologicals, 35-010-CV) and 1% penicillin-streptomycin (P/S, Corning, 30-002-CI). All cell lines were tested negative for Mycoplasma using Myco-Sniff-Rapid™ Mycoplasma Luciferase Detection Kit Plus PCR Primer Set (MP biomedicals, 0930504-CF) and were passaged and/or used for no longer than 4 weeks for all experiments H1975 and HCC-827 cells were seeded in 6-well plates with 400,000 cells per well and incubated overnight. H3255 and H3255GR cells were seeded in 12-well plates with 200,000 cells per well and were grown to confluency after 48 h. Culture medium was removed, cells washed with PBS, and lysed with lysis buffer containing 5 M NaCl, 1 M TRIS pH 8.0, 10% SDS, 10% Triton X-100 and a tablet of protease and phosphatase inhibitor. Protein lysate concentration was analyzed using Pierce BCA kit (ThermoFisher, 23225). Protein samples (10 µg) were resolved on hand-cast Criterion Tris-HCl protein gels. Primary antibodies used; phospho-EGFR (Tyr1068; #2234, 1:1,000), EGFR (#4267; 1:1,000), phospho-AKT (Ser473; #4060, 1:1,000), AKT (#9272, 1:1,000), phospho-ERK1/2 (Thr202/Tyr204; #4370, 1:1,000), and ERK1/2 (#4695, 1:1,000) antibodies; were purchased from Cell Signaling Technology. Secondary Goat anti-rabbit IgG starbright blue 700 (Biorad, 64484700) and Anti-tubulin hFAB Rhodamine Tubulin (Bio-Rad, 64512248). Western blots were visualized with the ChemiDoc MP imager (Bio-Rad) utilizing the Image Lab Touch Software (version 2.4.0.03). All Western blot images are representatives of at least 3 independent replicate experiments.
(In western blotting, separated proteins are transferred to a membrane and probed.)

The target in another test is T2, ABL1-nonphosphorylated (Homo sapiens, UniProt P00519).
T2 construct: purchased Eurofins DiscoverX Corporation
As to the kind of experiment: KINOMEscan. The format is binding. The settings on record: 1 μM.

For the next test, the target named is EGFR(L747-E749del+A750P) (Homo sapiens, UniProt P00533, A750P/DEL747-749). Briefly: KINOMEscan. The format is binding. The note with it: 1 μM.
For the next test, the target named is T3, HIPK4 (Homo sapiens, UniProt Q8NE63).
T3 construct: purchased Eurofins DiscoverX Corporation
Briefly: KINOMEscan. It counts as binding. The note with it: 1 μM.

The target in the next test is T4, KIT(L576P) (Homo sapiens, UniProt P10721, L576P).
T4 construct: purchased Eurofins DiscoverX (KINOMEscan)
As to the kind of experiment: KINOMEscan. The format is binding. The settings on record: 1 μM.

A further test has as its target T5, MERTK (Homo sapiens, UniProt Q12866).
T5 construct: purchased Eurofins DiscoverX Corporation
Briefly: KINOMEscan. It counts as binding. The settings on record: 1 μM.

A further test has as its target T6, MYLK2 (Homo sapiens, UniProt Q9H1R3).
T6 construct: purchased Eurofins DiscoverX Corporation
Briefly: KINOMEscan. The settings on record: 1 μM. It counts as binding.

The target in a further test is PFTAIRE2 (Homo sapiens, UniProt Q96Q40). Briefly: KINOMEscan. The format is binding. The note with it: 1 μM.
The target in a further test is PLK2 (Homo sapiens, UniProt Q9NYY3). Briefly: KINOMEscan. The settings on record: 1 μM. It counts as binding.
The target in a further test is RAF1 (Homo sapiens, UniProt P04049). As to the kind of experiment: KINOMEscan. It counts as binding. The note with it: 1 μM.
For the next test, the target named is T7, STK39 (Homo sapiens, UniProt Q9UEW8).
T7 construct: purchased Eurofins DiscoverX Corporation
Briefly: KINOMEscan. It counts as binding. The note with it: 1 μM.

Setting [6] is: enzyme 0.02 nM, ATP 100 µM, read-out: Biochemical EGFR IC50, LRTMCS.

Broadly, the IC50 is the concentration needed to halve the response being measured.

T2 sequence (P00519 whole entry): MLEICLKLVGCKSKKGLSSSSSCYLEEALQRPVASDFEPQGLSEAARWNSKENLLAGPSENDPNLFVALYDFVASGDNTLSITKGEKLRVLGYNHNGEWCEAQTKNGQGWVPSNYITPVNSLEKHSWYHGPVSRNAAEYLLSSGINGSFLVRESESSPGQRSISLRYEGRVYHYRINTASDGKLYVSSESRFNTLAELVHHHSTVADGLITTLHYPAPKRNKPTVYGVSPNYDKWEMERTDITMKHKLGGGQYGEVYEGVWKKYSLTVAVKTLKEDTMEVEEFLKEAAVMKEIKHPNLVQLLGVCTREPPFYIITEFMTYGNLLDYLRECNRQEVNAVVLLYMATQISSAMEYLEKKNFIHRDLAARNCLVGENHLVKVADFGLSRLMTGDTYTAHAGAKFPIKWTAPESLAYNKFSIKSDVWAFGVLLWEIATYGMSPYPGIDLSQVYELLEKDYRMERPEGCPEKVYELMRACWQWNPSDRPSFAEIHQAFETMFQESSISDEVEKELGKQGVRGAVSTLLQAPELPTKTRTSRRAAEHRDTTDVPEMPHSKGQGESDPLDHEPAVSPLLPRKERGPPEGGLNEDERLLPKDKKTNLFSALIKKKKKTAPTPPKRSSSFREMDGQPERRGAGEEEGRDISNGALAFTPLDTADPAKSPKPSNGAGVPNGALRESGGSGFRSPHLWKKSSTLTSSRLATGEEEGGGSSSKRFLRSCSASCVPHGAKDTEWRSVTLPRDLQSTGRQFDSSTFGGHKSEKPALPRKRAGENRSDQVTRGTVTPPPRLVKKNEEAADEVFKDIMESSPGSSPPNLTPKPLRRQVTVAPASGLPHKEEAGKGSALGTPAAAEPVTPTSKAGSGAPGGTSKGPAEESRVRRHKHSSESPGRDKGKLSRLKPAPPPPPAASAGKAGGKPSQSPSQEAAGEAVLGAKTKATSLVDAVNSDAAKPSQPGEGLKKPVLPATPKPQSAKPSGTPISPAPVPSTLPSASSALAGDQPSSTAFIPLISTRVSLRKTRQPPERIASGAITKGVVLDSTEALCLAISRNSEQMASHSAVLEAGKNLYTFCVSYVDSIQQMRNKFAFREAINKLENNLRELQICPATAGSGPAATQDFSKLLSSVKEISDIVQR
Chain of PLK2 (Q9NYY3 whole entry): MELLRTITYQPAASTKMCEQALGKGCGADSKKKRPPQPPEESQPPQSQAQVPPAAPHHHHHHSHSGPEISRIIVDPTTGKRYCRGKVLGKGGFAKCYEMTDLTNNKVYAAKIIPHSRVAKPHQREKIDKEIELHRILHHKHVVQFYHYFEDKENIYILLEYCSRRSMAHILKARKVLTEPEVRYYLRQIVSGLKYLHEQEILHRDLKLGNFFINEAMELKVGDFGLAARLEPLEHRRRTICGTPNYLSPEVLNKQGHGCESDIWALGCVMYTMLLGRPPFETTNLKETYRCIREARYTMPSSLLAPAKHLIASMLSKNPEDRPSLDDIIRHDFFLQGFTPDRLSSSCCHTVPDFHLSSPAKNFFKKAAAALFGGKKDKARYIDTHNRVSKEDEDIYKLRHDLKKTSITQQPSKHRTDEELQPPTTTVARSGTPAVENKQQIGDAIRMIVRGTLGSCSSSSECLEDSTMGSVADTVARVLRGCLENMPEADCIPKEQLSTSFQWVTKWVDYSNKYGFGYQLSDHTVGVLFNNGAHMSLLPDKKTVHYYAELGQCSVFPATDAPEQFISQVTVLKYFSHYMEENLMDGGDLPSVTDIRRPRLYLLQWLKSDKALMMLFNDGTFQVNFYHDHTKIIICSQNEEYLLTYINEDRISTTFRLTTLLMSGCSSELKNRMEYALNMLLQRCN
T5 sequence (Q12866 21-999): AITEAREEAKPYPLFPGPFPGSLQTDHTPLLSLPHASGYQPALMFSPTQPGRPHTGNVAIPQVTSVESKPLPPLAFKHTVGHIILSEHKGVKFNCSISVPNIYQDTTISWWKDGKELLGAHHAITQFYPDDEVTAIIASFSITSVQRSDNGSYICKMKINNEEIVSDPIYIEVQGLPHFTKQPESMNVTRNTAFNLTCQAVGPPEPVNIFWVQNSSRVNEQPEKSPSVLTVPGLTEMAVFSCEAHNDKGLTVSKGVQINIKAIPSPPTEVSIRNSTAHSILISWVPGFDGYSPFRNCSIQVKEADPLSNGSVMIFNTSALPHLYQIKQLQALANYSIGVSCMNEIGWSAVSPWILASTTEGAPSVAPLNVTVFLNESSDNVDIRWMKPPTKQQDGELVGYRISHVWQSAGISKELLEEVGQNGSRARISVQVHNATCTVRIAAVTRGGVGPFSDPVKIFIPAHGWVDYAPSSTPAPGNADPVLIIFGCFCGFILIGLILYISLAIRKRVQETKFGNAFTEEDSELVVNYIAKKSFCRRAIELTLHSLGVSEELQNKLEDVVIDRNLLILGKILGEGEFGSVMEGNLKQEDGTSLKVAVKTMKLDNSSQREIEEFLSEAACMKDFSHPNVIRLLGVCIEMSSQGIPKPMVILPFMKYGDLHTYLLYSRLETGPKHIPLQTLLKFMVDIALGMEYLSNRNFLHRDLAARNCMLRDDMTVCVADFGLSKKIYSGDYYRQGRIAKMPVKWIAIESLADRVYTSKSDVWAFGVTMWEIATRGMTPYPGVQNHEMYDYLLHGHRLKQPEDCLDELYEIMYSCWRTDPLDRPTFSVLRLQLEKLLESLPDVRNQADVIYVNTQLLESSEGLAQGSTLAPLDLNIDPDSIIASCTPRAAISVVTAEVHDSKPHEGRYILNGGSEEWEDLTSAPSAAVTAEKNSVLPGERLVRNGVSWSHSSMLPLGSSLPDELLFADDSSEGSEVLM
T3 sequence (Q8NE63 whole entry): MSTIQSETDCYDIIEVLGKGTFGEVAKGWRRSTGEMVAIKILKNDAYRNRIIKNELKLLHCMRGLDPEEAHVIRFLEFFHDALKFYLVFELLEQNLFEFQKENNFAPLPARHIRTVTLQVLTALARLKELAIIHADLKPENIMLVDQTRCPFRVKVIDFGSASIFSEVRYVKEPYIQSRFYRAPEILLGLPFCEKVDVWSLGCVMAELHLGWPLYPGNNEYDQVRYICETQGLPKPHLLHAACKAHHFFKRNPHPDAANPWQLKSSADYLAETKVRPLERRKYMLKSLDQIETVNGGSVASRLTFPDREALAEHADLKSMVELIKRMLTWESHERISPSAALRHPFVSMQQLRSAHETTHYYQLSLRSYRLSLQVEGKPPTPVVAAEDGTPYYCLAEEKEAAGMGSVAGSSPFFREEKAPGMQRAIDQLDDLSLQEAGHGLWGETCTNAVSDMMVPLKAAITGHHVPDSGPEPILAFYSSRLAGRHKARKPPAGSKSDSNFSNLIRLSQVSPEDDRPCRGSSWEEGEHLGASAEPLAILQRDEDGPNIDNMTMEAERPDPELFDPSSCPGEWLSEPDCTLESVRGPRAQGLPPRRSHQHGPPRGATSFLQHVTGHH
Chain of PFTAIRE2 (Q96Q40 whole entry): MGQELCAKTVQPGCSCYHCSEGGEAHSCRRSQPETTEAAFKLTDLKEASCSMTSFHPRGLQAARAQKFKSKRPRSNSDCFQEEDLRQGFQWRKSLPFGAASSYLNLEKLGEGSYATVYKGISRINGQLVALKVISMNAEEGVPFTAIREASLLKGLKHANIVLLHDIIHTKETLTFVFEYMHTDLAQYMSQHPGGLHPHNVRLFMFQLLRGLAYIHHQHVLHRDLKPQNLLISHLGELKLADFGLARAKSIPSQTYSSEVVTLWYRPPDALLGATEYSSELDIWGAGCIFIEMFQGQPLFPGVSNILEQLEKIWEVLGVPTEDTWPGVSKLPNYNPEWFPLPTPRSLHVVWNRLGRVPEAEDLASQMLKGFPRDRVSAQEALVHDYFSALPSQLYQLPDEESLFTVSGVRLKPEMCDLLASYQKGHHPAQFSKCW
T4 sequence (P10721 26-976 L576P): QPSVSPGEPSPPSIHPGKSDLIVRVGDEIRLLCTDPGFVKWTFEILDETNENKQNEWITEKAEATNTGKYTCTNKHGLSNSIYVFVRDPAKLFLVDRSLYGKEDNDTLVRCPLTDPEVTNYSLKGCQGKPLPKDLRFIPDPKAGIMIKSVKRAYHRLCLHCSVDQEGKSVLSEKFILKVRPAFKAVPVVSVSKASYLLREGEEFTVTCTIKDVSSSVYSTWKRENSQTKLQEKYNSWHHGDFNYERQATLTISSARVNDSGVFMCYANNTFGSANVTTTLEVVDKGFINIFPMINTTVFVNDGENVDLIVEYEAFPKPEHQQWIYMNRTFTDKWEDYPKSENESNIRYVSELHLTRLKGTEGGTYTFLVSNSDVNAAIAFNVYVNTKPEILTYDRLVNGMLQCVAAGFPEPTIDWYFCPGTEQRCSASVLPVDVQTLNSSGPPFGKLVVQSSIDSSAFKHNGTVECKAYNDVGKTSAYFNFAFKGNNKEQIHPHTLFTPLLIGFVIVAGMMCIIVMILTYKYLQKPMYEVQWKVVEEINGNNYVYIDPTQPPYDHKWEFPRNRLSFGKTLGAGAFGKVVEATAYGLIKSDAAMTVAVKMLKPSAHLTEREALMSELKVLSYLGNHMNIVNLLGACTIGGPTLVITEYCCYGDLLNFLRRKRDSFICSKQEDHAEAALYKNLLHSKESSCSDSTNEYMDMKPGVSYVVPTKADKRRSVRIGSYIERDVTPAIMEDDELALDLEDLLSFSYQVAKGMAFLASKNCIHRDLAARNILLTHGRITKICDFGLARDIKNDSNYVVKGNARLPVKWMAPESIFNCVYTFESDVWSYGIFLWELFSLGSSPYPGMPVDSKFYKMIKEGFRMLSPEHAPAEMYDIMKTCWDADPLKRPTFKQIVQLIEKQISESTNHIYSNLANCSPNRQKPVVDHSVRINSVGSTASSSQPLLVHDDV

Take `CSc1nc(-c2cccc(NC(=O)c3cccc4c3NC(=O)c3ccccc3N4)c2)c(-c2ccnc(NC(C)=O)c2)[nH]1` [Compound 2]: the activity was 93.5% and 92.2% and 100% in [1] (LRTMCS, [Inhibitor] 1.3e-5 nM, read-out: percent inhibition); 90.3% (2×) and 95.9% in [1] (LRTMCS, [Inhibitor] 3.18e-5 nM, read-out: percent inhibition); 71% and 67.2% and 70.8% in [1] (LRTMCS, [Inhibitor] 7.78e-5 nM, read-out: percent inhibition). For the same molecule, the activity at 190.4 fM in test [1] (LRTMCS, [Inhibitor] 0.000190441 nM, read-out: percent inhibition) was found to be 39.1%. The activity at 466 fM in test [1] (LRTMCS, [Inhibitor] 0.000465979 nM, read-out: percent inhibition) was 22.7%. In addition, the activity at 1.14 pM in test [1] (LRTMCS, [Inhibitor] 0.00114018 nM, read-out: percent inhibition) is 13.5%. Besides, the activity at 2.79 pM in [1] (LRTMCS, [Inhibitor] 0.00278983 nM, read-out: percent inhibition) worked out at 8.55%. In test [1] (LRTMCS, [Inhibitor] 0.00682626 nM, read-out: percent inhibition), the activity at 6.826 pM amounted to 4.28%. Further, in [1] (LRTMCS, [Inhibitor] 0.0167028 nM, read-out: percent inhibition), the activity at 16.7 pM was found to be 1.88%. Moreover, the IC50 in test [1] (setting [6]) is 0.064 ± 0.004 nM; in test [1] (read-out: IC50, LRTMCS), 0.051 to 0.064 nM. The EC50 in the test on Ba/F3 cells, L858R EGFR was 5300 nM; in test [2], above 10000 nM; in test [3] it was 6500 nM; in [4], 5100 nM. Further, in test [5] (H1975, 6 h), the “suppression of EGFR phosphorylation” value is recorded as “also effective in H1975 cells, however to a lesser extent than 4”.
With `C=CC(=O)Nc1ccc(OC)c(Nc2cc(-c3[nH]c(CC)nc3-c3cccc(NC(=O)c4cccc5c4NC(=O)c4ccccc4N5)c3)ccn2)c1` [Compound 4], the 50% inhibitory concentration (IC50) in test [1] (setting [6]) came to 1.8 ± 0.3 nM. Also, in test [1] (reversible inhibition), the “IC50 improvement over orthosteric-only 7, LRTMCS” value stood at 100 fold. For the same molecule, the EC50 in the test with Ba/F3 cells, L858R EGFR is 220 nM; in [2], 770 nM; in test [3] it was above 10000 nM; in test [4], 950 nM. The “concentration suppressing LRTM phosphorylation (pY1068), pERK and pAKT” value in test [5] (H1975, dosed for 6 h) is “below 1 µM”. Further, the POC is listed as 100% of control on ABL1-nonphosphorylated; 8% of control at EGFR(L747-E749del+A750P); 92% of control at HIPK4; 84% of control at KIT(L576P); 83% of control on MERTK; 84% of control at MYLK2. In addition, the POC at PFTAIRE2 is recorded as 84% of control; at PLK2, 100% of control; at RAF1, 73% of control; on STK39, 85% of control.
